Reference: the NIST ThermoML archive (doi:10.1021/je501161t)

Test: mn = molality of the nth substance listed, in mol/kg
Conditions: 100 kPa, Liquid, Vibrating tube method

CCCCCCCCn1cc[n+](C)c1.[Br-] [1-methyl-3-octylimidazolium bromide] + O
mass density [kg/m3]
Conditions | m1 = 0.0323 | m1 = 0.0501 | m1 = 0.0722 | m1 = 0.0908 | m1 = 0.1112 | m1 = 0.1301 | m1 = 0.1485 | m1 = 0.1707 | m1 = 0.191
288.15 K | 1000.51 | 1001.28 | 1002.24 | 1003.03 | 1003.9 | 1004.69 | 1005.47 | 1006.39 | 1007.25
298.15 K | 998.383 | 999.121 | 1000.02 | 1000.77 | 1001.6 | 1002.36 | 1003.08 | 1003.99 | 1004.77
308.15 K | 995.284 | 995.975 | 996.827 | 997.539 | 998.314 | 999.033 | 999.725 | 1000.54 | 1001.3
318.15 K | 991.366 | 992.011 | 992.796 | 993.46 | 994.171 | 994.852 | 995.483 | 996.26 | 996.981

CCCCCCn1cc[n+](C)c1.[Br-] [3-hexyl-1-methyl-1H-imidazolium bromide] + O
mass density [kg/m3]
Conditions | m1 = 0.0314 | m1 = 0.0515 | m1 = 0.0703 | m1 = 0.0881 | m1 = 0.1098 | m1 = 0.131 | m1 = 0.1505 | m1 = 0.1711 | m1 = 0.1903
288.15 K | 1000.58 | 1001.52 | 1002.4 | 1003.23 | 1004.23 | 1005.18 | 1006.08 | 1007 | 1007.87
298.15 K | 998.466 | 999.368 | 1000.21 | 1001 | 1001.96 | 1002.88 | 1003.74 | 1004.64 | 1005.47
308.15 K | 995.404 | 996.284 | 997.097 | 997.858 | 998.787 | 999.688 | 1000.5 | 1001.4 | 1002.2
318.15 K | 991.535 | 992.389 | 993.185 | 993.932 | 994.837 | 995.704 | 996.521 | 997.358 | 998.139

CCCCn1cc[n+](C)c1.[Cl-] [1-butyl-3-methylimidazolium chloride] + O
mass density [kg/m3]
Conditions | 288.15 K | 298.15 K | 308.15 K | 318.15 K
m1 = 0.0323 | 999.529 | 997.423 | 994.372 | 990.507
m1 = 0.0586 | 999.875 | 997.736 | 994.658 | 990.768
m1 = 0.0739 | 1000.08 | 997.92 | 994.834 | 990.922
m1 = 0.0899 | 1000.29 | 998.113 | 995.007 | 991.091
m1 = 0.1048 | 1000.49 | 998.297 | 995.182 | 991.26
m1 = 0.1254 | 1000.76 | 998.55 | 995.409 | 991.473
m1 = 0.1437 | 1001.01 | 998.776 | 995.622 | 991.68
m1 = 0.1687 | 1001.33 | 999.091 | 995.913 | 991.942
m1 = 0.1789 | 1001.47 | 999.214 | 996.039 | 992.06
m1 = 0.191 | 1001.63 | 999.373 | 996.185 | 992.216
m1 = 0.2204 | 1002.03 | 999.752 | 996.541 | 992.538

CCCCn1cc[n+](C)c1.F[B-](F)(F)F [1-butyl-3-methylimidazolium tetrafluoroborate] + O
mass density [kg/m3]
Conditions | m1 = 0.0311 | m1 = 0.0527 | m1 = 0.072 | m1 = 0.0904 | m1 = 0.1103 | m1 = 0.1326 | m1 = 0.1525 | m1 = 0.1788
288.15 K | 1000.38 | 1001.26 | 1002.03 | 1002.76 | 1003.54 | 1004.4 | 1005.17 | 1006.16
298.15 K | 998.274 | 999.116 | 999.86 | 1000.56 | 1001.31 | 1002.13 | 1002.86 | 1003.82
308.15 K | 995.194 | 995.999 | 996.713 | 997.385 | 998.11 | 998.921 | 999.635 | 1000.58
318.15 K | 991.332 | 992.114 | 992.809 | 993.467 | 994.171 | 994.948 | 995.643 | 996.555

CCCCn1cc[n+](C)c1.[Br-] [1-butyl-3-methylimidazolium bromide] + O
mass density [kg/m3]
Conditions | m1 = 0.0317 | m1 = 0.0585 | m1 = 0.073 | m1 = 0.0916 | m1 = 0.114 | m1 = 0.1319 | m1 = 0.1508 | m1 = 0.1706 | m1 = 0.191
288.15 K | 1000.71 | 1002.05 | 1002.78 | 1003.7 | 1004.8 | 1005.69 | 1006.6 | 1007.56 | 1008.55
298.15 K | 998.612 | 999.924 | 1000.63 | 1001.53 | 1002.61 | 1003.47 | 1004.36 | 1005.3 | 1006.26
308.15 K | 995.556 | 996.84 | 997.535 | 998.413 | 999.47 | 1000.32 | 1001.19 | 1002.12 | 1003.07
318.15 K | 991.699 | 992.959 | 993.641 | 994.509 | 995.544 | 996.382 | 997.243 | 998.148 | 999.08

COS(=O)(=O)[O-].Cn1cc[n+](C)c1 [1,3-dimethylimidazolium methylsulfate] + O
mass density [kg/m3]
Conditions | m1 = 0.0333 | m1 = 0.052 | m1 = 0.0743 | m1 = 0.0945 | m1 = 0.1147 | m1 = 0.1309 | m1 = 0.1517 | m1 = 0.1791
288.15 K | 1000.78 | 1001.71 | 1002.81 | 1003.79 | 1004.77 | 1005.55 | 1006.54 | 1007.82
298.15 K | 998.673 | 999.578 | 1000.65 | 1001.61 | 1002.57 | 1003.33 | 1004.3 | 1005.56
308.15 K | 995.619 | 996.505 | 997.553 | 998.494 | 999.435 | 1000.18 | 1001.14 | 1002.38
318.15 K | 991.771 | 992.648 | 993.684 | 994.617 | 995.542 | 996.28 | 997.222 | 998.46

CCOS(=O)(=O)[O-].CCn1cc[n+](C)c1 [1-ethyl-3-methylimidazolium ethyl sulfate] + O
mass density [kg/m3]
Conditions | m1 = 0.0313 | m1 = 0.0499 | m1 = 0.0682 | m1 = 0.0901 | m1 = 0.1095 | m1 = 0.1322
288.15 K | 1000.55 | 1001.4 | 1002.22 | 1003.21 | 1004.08 | 1005.09
298.15 K | 998.448 | 999.27 | 1000.07 | 1001.04 | 1001.87 | 1002.86
308.15 K | 995.398 | 996.212 | 996.995 | 997.93 | 998.762 | 999.712
318.15 K | 991.566 | 992.377 | 993.169 | 994.105 | 994.936 | 995.897
